Patent US20080045537A1, “Chemical Compounds” (priority 2004, published 2008)
Read-outs that look alike come from different tables or passages of the source.

Legend:
Format in all cases: cell-based
human CXCR4 = target: T1, human CXCR4 (Homo sapiens, UniProt P61073); test: Functional FLIPR assay (block of SDF-1 alpha induced [Ca2+]i change); conditions: HEK-293 cells with human CXCR4 BacMam and Gqi5 BacMam; antagonism of SDF-1 alpha; read-out: Functional assay (pIC50) (converted)
T1 construct: expressed in transfected cells; host or cells: HEK-293 cells (stably expressing human macrophage scavenging receptor) transduced with human CXCR4 BacMam and Gqi5 BacMam baculoviruses
T1 sequence (P61073 whole entry): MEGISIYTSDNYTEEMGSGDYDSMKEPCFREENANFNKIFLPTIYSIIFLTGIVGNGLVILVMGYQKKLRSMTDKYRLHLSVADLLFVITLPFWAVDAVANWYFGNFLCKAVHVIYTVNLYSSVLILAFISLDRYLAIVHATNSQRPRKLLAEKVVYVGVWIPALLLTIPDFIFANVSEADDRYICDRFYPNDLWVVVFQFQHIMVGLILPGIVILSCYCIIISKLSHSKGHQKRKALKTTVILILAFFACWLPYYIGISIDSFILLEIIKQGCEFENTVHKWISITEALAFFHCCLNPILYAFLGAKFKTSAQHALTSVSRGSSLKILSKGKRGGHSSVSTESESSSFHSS
Procedure: Human embryonic kidney (HEK-293) cells were maintained and harvested as described above. Cells were plated in 96-well, black clear bottom, poly-lysine coated plates at a concentration of 40,000 cells per well in a final volume of 100 ul containing human CXCR4BacMam (MOI=25) and Gqi5 BacMam (MOI=12.5). The cells were incubated at 37° C., 5% CO2, 95% humidity for 24 h to allow for protein expression.
After the required incubation time the cells were washed once with 50 ul of fresh serum-free DMEM/F12 media containing probenicid. 50 ul of dye solution was then added to the cells (Calcium Plus Assay Kit Dye; Molecular Devices) was dissolved in 200 ml of the above probenicid/BSA containing media and incubated for 1 h. Cell plates were transferred to a Fluorometric Imaging Plate Reader (FLIPR). Upon addition the effect of the compounds on the change in [Ca^2+]i was examined to determine if the compounds were agonists or antagonists (ability to block SDF-1 alpha activity) at the CXCR4 receptor. IC50 values are determined and pKb values are calculated using the Leff and Dougall equation: KB=IC50/((2+([agonist]/EC50ˆb)ˆ1/b−1) Where IC50 is that defined by the antagonist concentration-response curve [agonist] is the EC80 concentration of agonist used EC50 is that defined by the agonist concentration-response curve b is the slope of the agonist concentration-response curve.

[1] = system: HIV-1 gp160 (from the HXB2 HIV strain); test: Cell/cell fusion assay (HEK-293 expressing HIV-1 tat, rev, gp160 with HOS hCXCR4/hCCR5/hCD4/pHIV-LTR-luciferase cells); conditions: Human immunodeficiency virus 1, HXB2, HEK293, 24 h, read-out: Fusion assay (pIC50), luciferase readout after 24 h (converted)
Description: The complete coding sequences of HIV-1 tat (GenBank Accession No. X07861) and rev (GenBank Accession No. M34378) were cloned into pcDNA3.1 expression vectors containing G418 and hygromycin resistance genes, respectively. The complete coding sequence of the HIV-1 (HXB2 strain) gp160 envelope gene (nucleotide bases 6225-8795 of GenBank Accession No. K03455) was cloned into plasmid pCRII-TOPO. The three HIV genes were additionally inserted into the baculovirus shuttle vector, pFastBacMam1, under the transcriptional control of the CMV promoter. A construction of the pHIV-I LTR containing mutated NFkB sequences linked to the luciferase reporter gene was prepared by digesting pcDNA3.1, containing the G418 resistance gene, with Nru I and Bam HI to remove the CMV promoter. LTR-luc was then cloned into the Nru I/Bam HI sites of the plasmid vector. Plasmid preparations were performed after the plasmids were amplified in Escherichia coli strain DH5-alpha. The fidelity of the inserted sequences was confirmed by double-strand nucleotide sequencing using an ABI Prism Model 377 automated sequencer.
Recombinant BacMam baculoviruses were constructed from pFastBacMam shuttle plasmids by using the bacterial cell-based Bac-to-Bac system. Viruses were propagated in Sf9 (Spodoptera frugiperda) cells cultured in Hink's TNM-FH Insect media supplemented with 10% (v/v) fetal bovine serum and 0.1% (v/v) pluronic F-68 according to established protocols.
Human osteosarcoma (HOS) cells that naturally express human CXCR4 were transfected with human CCR5, human CD4 and the pHIV-LTR-luciferase plasmid using FuGENE 6 transfection reagent. Single cells were isolated and grown under selection condition in order to generate a stable HOS (hCXCR4/hCCR5/hCD4/pHIV-LTR-luciferase) clonal cell line. The cells were maintained in Dulbeccos modified Eagles media supplemented with 10% fetal calf serum (FCS), G418 (400 ug/ml), puromycin (1 ug/ml), mycophenolic acid (40 ug/ml), xanthine (250 ug/ml) and hypoxanthine (13.5 ug/ml) to maintain a selection pressure for cells expressing the LTR-luciferase, hCCR5 and hCD4, respectively. Human embryonic kidney (HEK-293) cells stably transfected to express the human macrophage scavenging receptor (Class A, type 1; GenBank Accession No. D90187), were maintained in DMEM/F-12 media (1:1) supplemented with 10% FCS and 1.5 ug/ml puromycin. The expression of this receptor by the HEK-293 cells enhances their ability to stick to tissue culture treated plasticware.
HEK-293 cells were harvested using enzyme-free cell dissociation buffer. The cells were resuspended in DMEM/F-12 media supplemented with 10% FCS and 1.5 ug/ml and counted. Tranductions were performed by direct addition of BacMam baculovirus containing insect cell media to cells. The cells were simultaneously transduced with BacMam baculovirus expressing HIV-1 tat, HIV-1 rev and HIV-1 gp160 (from the HXB2 HIV strain). Routinely an MOI of 10 of each virus was added to the media containing the cells. 2 mM butyric acid was also added to the cells at this stage to increase protein expression in transduced cells. The cells were subsequently mixed and seeded into a flask at 30 million cells per T225. The cells were incubated at 37° C., 5% CO2, 95% humidity for 24 h to allow for protein expression.
HEK and HOS cells were harvested in DMEM/F-12 media containing 2% FCS and DMEM media containing 2% FCS, respectively, with no selection agents added. Compounds were plated as 1 ul spots in 100% DMSO on a 96-well CulturPlate plates. HOS cells (50 ul) were added first to the wells, followed immediately by the HEK cells (50 ul). The final concentration of each cell type was 20,000 cells per well. Following these additions, the cells were returned to a tissue culture incubator (37° C.; 5% CO2/95% air) for an additional 24 h.
Following the 24 h incubation, total cellular luciferase activity was measured using the LucLite Plus assay kit (Packard, Meridien, Conn.). […]

[2] = Compound cytotoxicity in the absence of virus addition (CellTiter-Glo); conditions: human; non-infected HOS cultures; read-out: Cytotox (pIC50) (converted)
Procedure: Compounds were profiled against two HIV-1 viruses, the M-tropic (CCR5 utilizing) Ba-L strain and the T-tropic (CXCR4 utilizing) IIIB strain. Both viruses were propagated in human peripheral blood lymphocytes. Compounds were tested for there ability to block infection of the HOS cell line (expressing hCXCR4/hCCR5/hCD4/pHIV-LTR-luciferase) by either HIV-1 Ba-L or HIV-1 IIIB. Compound cytotoxicity was also examined in the absence of virus addition.
HOS cells (expressing hCXCR4/hCCR5/hCD4/pHIV-LTR-luciferase) were harvested and diluted in Dulbeccos modified Eagles media supplemented with 2% FCS and non-essential amino acid to a concentration of 60,000 cells/ml. The cells were plated into 96-well plates (100 ul per well) and the plates were placed in a tissue culture incubator (37° C.; 5% CO2/95% air) for a period of 24 h.
Subsequently, 50 ul of the desired drug solution (4 times the final concentration) was added to each well and the plates were returned to the tissue culture incubator (37° C.; 5% CO2/95% air) for 1 h. Following this incubation 50 ul of diluted virus was added to each well (approximately 2 million RLU per well of virus). The plates were returned to the tissue culture incubator (37° C.; 5% CO2/95% air) and were incubated for a further 96 h.
Following this incubation the endpoint for the virally infected cultures was quantified following addition of Steady-Glo Luciferase assay system reagent (Promega, Madison, Wis.). Cell viability or non-infected cultures was measured using a CellTiter-Glo luminescent cell viability assay system (Promega, Madison, Wis.). All luminescent readouts are performed on a Topcount luminescence detector (Packard, Meridien, Conn.).

[3] = system: HIV-1 IIIB (T-tropic, CXCR4 utilizing); test: HOS HIV-1 infectivity assay
How it was run: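 HOS cells expressing hCXCR4/hCCR5/hCD4 with an HIV-LTR-luciferase reporter were seeded in DMEM with 2% FCS and cultured 24 h at 37 °C. Compound was added 1 h before virus (~2 million RLU/well), then incubated 96 h. Infection was read by Steady-Glo luciferase; viability of uninfected cultures by CellTiter-Glo.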

[4] = Human immunodeficiency virus 1, IIIB, as determined by the infectivity assay, strain not stated in Table 2, read-out: Activity Level
[5] = Human immunodeficiency virus 1, HIV-1 IIIB, HOS cells, 96 h, luciferase readout, read-out: HOS (3B)

Structure (SMILES)	IC50 (human CXCR4) [nM]	IC50 [1] [nM]	IC50 at 96 h [2] [nM]	IC50 [3, 4] [nM]	IC50 [3, 5] [nM]
CN(Cc1nc2cccc(C(=O)NCCc3c[nH]cn3)c2n1C)C1CCCc2cccnc21 (centres unmarked) [Example 7, N-[2-(1H-Imidazol-4-yl)ethyl]-1-methyl-2-{[methyl(5,6,7,8-tetrahydro-8-quinolinyl)amino]methyl}-1H-benzimidazole-7-carboxamide]	8.51	55	> 100000	< 100	8
CN(Cc1nc2cccc(C(=O)N3CCNCC3)c2n1C)C1CCCc2cccnc21 (centres unmarked) [Example 8, N-Methyl-N-{[1-methyl-7-(1-piperazinylcarbonyl)-1H-benzimidazol-2-yl]methyl}-5,6,7,8-tetrahydro-8-quinolinamine]	33.9	53.7	> 100000	< 100	43
CC(C)CN1CCN(c2cccc3[nH]c(CN(C)C4CCCc5cccnc54)nc23)CC1 (centres unmarked) [Example 36, N-methyl-N-({4-[4-(2-methylpropyl)-1-piperazinyl]-1H-benzimidazol-2-yl}methyl)-5,6,7,8-tetrahydro-8-quinolinamine]			> 100000	< 100	50
CN1CCN(c2cccc3[nH]c([C@H](COCc4ccccc4)N(C)C4CCCc5cccnc54)nc23)CC1 (stereo partly drawn) [Example 176, N-Methyl-N-{(1R)-1-[4-(4-methyl-1-piperazinyl)-1H-benzimidazol-2-yl]-2-[(phenylmethyl)oxy]ethyl}-5,6,7,8-tetrahydro-8-quinolinamine]				< 100	
CN1CCN(c2cccc3[nH]c([C@@H](COCc4ccccc4)N(C)C4CCCc5cccnc54)nc23)CC1 (stereo partly drawn) [Example 177, N-Methyl-N-{(1S)-1-[4-(4-methyl-1-piperazinyl)-1H-benzimidazol-2-yl]-2-[(phenylmethyl)oxy]ethyl}-5,6,7,8-tetrahydro-8-quinolinamine]				< 100	
Cn1c(CN(CCO)[C@H]2CCCc3cccnc32)nc2cccc(N3CCNCC3)c21 [Example 178, 2-{{[1-Methyl-7-(1-piperazinyl)-1H-benzimidazol-2-yl]methyl}[(8S)-5,6,7,8-tetrahydro-8-quinolinyl]amino}ethanol]				< 100	
Cn1c(CN(CCCO)[C@H]2CCCc3cccnc32)nc2cccc(N3CCNCC3)c21 [Example 179, 3-{{[1-Methyl-7-(1-piperazinyl)-1H-benzimidazol-2-yl]methyl}[(8S)-5,6,7,8-tetrahydro-8-quinolinyl]amino-}1-propanol]				< 100	
CN1CCN(c2cccc3nc(CN(CCO)[C@H]4CCCc5cccnc54)n(C)c23)CC1 [Example 180, 2-{{[1-Methyl-7-(4-methyl-1-piperazinyl)-1H-benzimidazol-2-yl]methyl}[(8S)-5,6,7,8-tetrahydro-8-quinolinyl]amino}ethanol]				< 100	
CN1CCN(c2cccc3nc(CN(CCCO)[C@H]4CCCc5cccnc54)n(C)c23)CC1 [Example 181, 3-{{[1-Methyl-7-(4-methyl-1-piperazinyl)-1H-benzimidazol-2-yl]methyl}[(8S)-5,6,7,8-tetrahydro-8-quinolinyl]amino}-1-propanol]				< 100	
CN1CCN(c2cccc3nc(CNC4CCc5cccnc54)[nH]c23)CC1 (centres unmarked) [Example 182, N-{[4-(4-Methyl-1-piperazinyl)-1H-benzimidazol-2-yl]methyl}-6,7-dihydro-5H-cyclopenta[b]pyridin-7-amine]				100 to 500	
CN1CCN(c2cccc3nc(CN(C)C4CCc5cccnc54)[nH]c23)CC1 (centres unmarked) [Example 183, N-Methyl-N-{[4-(4-methyl-1-piperazinyl)-1H-benzimidazol-2-yl]methyl}-6,7-dihydro-5H-cyclopenta[b]pyridin-7-amine]				< 100	
CN1CCN(c2cccc3nc(CNC4CCCCc5cccnc54)[nH]c23)CC1 (centres unmarked) [Example 184, N-{[4-(4-methyl-1-piperazinyl)-1H-benzimidazol-2-yl]methyl}-6,7,8,9-tetrahydro-5H-cyclohepta[b]pyridin-9-amine]				< 100	
CN1CCN(c2cccc3nc(CN(C)C4CCCCc5cccnc54)[nH]c23)CC1 (centres unmarked) [Example 185, N-methyl-N-{[4-(4-methyl-1-piperazinyl)-1H-benzimidazol-2-yl]methyl}-6,7,8,9-tetrahydro-5H-cyclohepta[b]pyridin-9-amine]				< 100	
